Measured values as given in US4870097A, “Pharmaceutical use of derivatives of tryptophan” (priority 1984, dated 1989).
Entries after “also recorded” stand apart in the source; their conditions may differ.

How the values were obtained:
[1] = tested on: tolerance induced by morphine; assay: Antagonism to the development of tolerance to repeated administration of morphine HCl (tail flick); type: in vivo, rats
Protocol: Several of the compounds of the invention were examined to determine any capacity to antagonise the development of tolerance induced by morphine. Groups of six male rats having a weight of about 200-250 were used.
At intervals of 24 hours from the first treatment (time 0), each animal (except for the control group treated with a physiological solution) received 3 mg/kg of morphine hydrochloride i.p. together with 3 mg/kg i.p. of the compounds indicated (with the exception of the group treated solely with morphine).
The determination of the threshold for the pain stimulus was effected at 15°, 30', 45' and 60' intervals from the treatment by the "tail flick" test.

[2] = tested on: activity of analgesic drugs; assay: Hot plate test: potentiation of analgesic drugs; type: in vivo, rats
Protocol: The method is that described by Eddy et al. (J. Pharmac. Exp. Ther. 107, 385 (1953)).
Groups of five male rats having a weight of about 150 g and which have not been fasting are used.
The animals are placed on a metal plate which is on the bottom of a transparent cylinder heated to 55°±1° C. by an azeotropic boiling mixture (1:1 acetone-ethyl formate). The time which passes between the moment at which the animal is placed on the hot plate and the moment at which it licks its feet or tries to jump out of the cylinder is defined as the reaction time. The control reaction time is measured 10 and 5 minutes before the administration of the drugs and 10, 20, 30, 45, 60, 90 minutes afterwards. The animals are left on the plate for a maximum period of 30 seconds.
The response to the administration of the product is considered positive if at least a doubling of the normal reaction time is seen. The results obtained are given in Table 2 which records the groups treated, the dose administered and the stay times on the plate expressed as the number of positive responses over the number treated.

[3] = tested on: guinea pig gall bladder contracted with CCK-8; assay: Anti-CCK activity on guinea pig gall bladders in vitro; type: biochemical; details: CCK-8 10 ng/ml, concentration antagonising 50% of contracting effect
How it was run: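 Longitudinal gall bladder strips in Krebs at 32° C, gassed with O2/CO2 95:5, were contracted with CCK-8 at 10 ng/ml and contractions recorded isometrically via force transducer. ED50 in mcg/ml is the compound concentration antagonising 50% of CCK contraction, derived by regression over at least three experiments.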

[4] = tested on: analgesic activity of morphine; assay: Tail Flick Test: increase in the analgesic effect of morphine; type: in vivo, rats
How it was run: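 Male non-fasted rats, 150-200 g; heat source (75 °C) on tail, latency to tail movement timed, 8 s cut-off. Measured before and 10, 20, 30, 45, 60, 90 min after analgesic dosing; percentage variation per animal, averaged over groups of five.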

[5] = days 0-7, 3 mg/kg + morphine (row Morphine: alone)
[6] = acetylsalicylic acid 100 + C. 26 5 mg/kg i.p.
[7] = acetylsalicylic acid 100 + C. 26 10 mg/kg i.p.
[8] = acetylsalicylic acid 100 + C. 26 20 mg/kg i.p.
[9] = propoxyphene 15 + C. 26 1 mg/kg i.p.
[10] = propoxyphene 15 + C. 26 2.5 mg/kg i.p.
[11] = propoxyphene 15 + C. 26 5.0 mg/kg i.p.

SMILES: CCCCCCc1ccc(C(=O)N[C@@H](Cc2c[nH]c3ccccc23)C(=O)O)cc1 [Compound 26]
- percentage variation in the latency time, day 0 ([1]; day 0, 3 mg/kg i.p. + morphine HCl 3 mg/kg i.p. (row Morphine: alone)): 74.14%
- percentage variation in the latency time, day 1 ([1]; day 1, 3 mg/kg i.p. + morphine HCl 3 mg/kg i.p. (row Morphine: alone)): 45.73%
- percentage variation in the latency time, day 2 ([1]; day 2, 3 mg/kg i.p. + morphine HCl 3 mg/kg i.p. (row Morphine: alone)): 59.5%
- percentage variation in the latency time, day 3 ([1]; day 3, 3 mg/kg i.p. + morphine HCl 3 mg/kg i.p. (row Morphine: alone)): 51.52%
- percentage variation in the latency time, day 4 ([1]; day 4, 3 mg/kg i.p. + morphine HCl 3 mg/kg i.p. (row Morphine: alone)): 43.40%
- percentage variation in the latency time, day 5 ([1]; day 5, 3 mg/kg i.p. + morphine HCl 3 mg/kg i.p. (row Morphine: alone)): 37.60%
- percentage variation in the latency time, day 6 ([1]; day 6, 3 mg/kg i.p. + morphine HCl 3 mg/kg i.p. (row Morphine: alone)): 21.43%
- percentage variation in the latency time, day 7 ([1]; day 7, 3 mg/kg i.p. + morphine HCl 3 mg/kg i.p. (row Morphine: alone)): 29.75%
- Area subtended (1) [1, 5]: 366.7 Effect-Day
- regression line % Effect versus Day [1, 5]: % Effect = - 6.02 Day + 66.5
- Area 1 / Area Morphine ([1]; days 0-7, 3 mg/kg + morphine, ratio to morphine alone): 2.61
- Positive Total X/25 [2, 6]: 15
- positive responses over the number treated, 10' [2, 6]: 3/5
- positive responses over the number treated, 20' [2, 6]: 2/5
- positive responses over the number treated, 30' [2, 6]: 4/5
- positive responses over the number treated, 45' [2, 6]: 4/5
- positive responses over the number treated, 60' [2, 6]: 2/5
- Positive Total X/25 [2, 7]: 21
- positive responses over the number treated, 10' [2, 7]: 5/5
- positive responses over the number treated, 20' [2, 7]: 4/5
- positive responses over the number treated, 30' [2, 7]: 5/5
- positive responses over the number treated, 45' [2, 7]: 4/5
- positive responses over the number treated, 60' [2, 7]: 3/5
- Positive Total X/25 [2, 8]: 23
- positive responses over the number treated, 10' [2, 8]: 4/5
- positive responses over the number treated, 20' [2, 8]: 5/5
- positive responses over the number treated, 30' [2, 8]: 5/5
- positive responses over the number treated, 45' [2, 8]: 5/5
- positive responses over the number treated, 60' [2, 8]: 4/5
- Positive Total X/25 [2, 9]: 15
- positive responses over the number treated, 10' [2, 9]: 2/5
- positive responses over the number treated, 20' [2, 9]: 3/5
- positive responses over the number treated, 30' [2, 9]: 4/5
- positive responses over the number treated, 45' [2, 9]: 3/5
- positive responses over the number treated, 60' [2, 9]: 3/5
- Positive Total X/25 [2, 10]: 20
- positive responses over the number treated, 10' [2, 10]: 3/5
- positive responses over the number treated, 20' [2, 10]: 5/5
- positive responses over the number treated, 30' [2, 10]: 5/5
- positive responses over the number treated, 45' [2, 10]: 4/5
- positive responses over the number treated, 60' [2, 10]: 3/5
- Positive Total X/25 [2, 11]: 24
- positive responses over the number treated, 10' [2, 11]: 4/5
- positive responses over the number treated, 20' [2, 11]: 5/5
- positive responses over the number treated, 30' [2, 11]: 5/5
- positive responses over the number treated, 45' [2, 11]: 5/5
- positive responses over the number treated, 60' [2, 11]: 5/5
- analgesic activity of propoxyphene (in words) ([2]; with propoxyphene, 2.5 mg/kg i.p. (double), 5 mg/kg i.p. (maximum effect)): at least double the analgesic activity of propoxyphene; also recorded: a maximum effect
- Anti CCK-8 activity, ED50 [3]: 152.1 µg/mL
- percentage variation in the latency of the pain sensation, 10' ([4]; 10', compound 10 mg/kg i.p. + morphine 2 mg/kg (row Morphine: alone), ± S.E.): 100.0 ± 0.0%
- percentage variation in the latency of the pain sensation, 20' ([4]; 20', compound 10 mg/kg i.p. + morphine 2 mg/kg (row Morphine: alone), ± S.E.): 87.6 ± 9.2%
- percentage variation in the latency of the pain sensation, 30' ([4]; 30', compound 10 mg/kg i.p. + morphine 2 mg/kg (row Morphine: alone), ± S.E.): 100.0 ± 0.0%
- percentage variation in the latency of the pain sensation, 45' ([4]; 45', compound 10 mg/kg i.p. + morphine 2 mg/kg (row Morphine: alone), ± S.E.): 100.0 ± 0.0%
- percentage variation in the latency of the pain sensation, 60' ([4]; 60', compound 10 mg/kg i.p. + morphine 2 mg/kg (row Morphine: alone), ± S.E.): 100.0 ± 0.0%
- percentage variation in the latency of the pain sensation, 90' ([4]; 90', compound 10 mg/kg i.p. + morphine 2 mg/kg (row Morphine: alone), ± S.E.): 84.5 ± 9.8%
- M(10'-90') average percentage variation ([4]; mean 10'-90', compound 10 mg/kg i.p. + morphine 2 mg/kg (row Morphine: alone)): 96.3%
- Potency ratio relative to morphine alone ([4]; rat, in vivo): 3.2
